Test results published in PMC9520775, “Everolimus pharmacokinetics and exposure-response relationship in Japanese patients with advanced breast cancer” (Frontiers in Pharmacology, 2022).

Tested on: patients with advanced or metastatic breast cancer
Test: Adverse events (CTCAE Ver. 4.0), dose-limiting toxicities and dose reductions under everolimus
Format: in vivo, human
Description: This was a prospective, observational PK study. Patients with advanced or metastatic breast cancer who received everolimus between November 2015 and November 2018 at Kobe City Medical Center General Hospital were enrolled in this study. The main inclusion criteria included the following: age ≥20 years; Eastern Cooperative Oncology Group (ECOG) performance status (PS): 0 or 1; and adequate bone marrow, liver, and renal function. The main exclusion criteria were interstitial pneumonia or pulmonary fibrosis, HBsAg positive, and psychiatric or psychological symptoms that made it difficult to participate in the study. Every participant provided written informed consent. This study was conducted in accordance with the Declaration of Helsinki and approved by the Institutional Review Board, under Approval Number zn151103.
Based on the physician’s decision, the patients were prescribed a starting dose of either 5 or 10 mg everolimus once daily. The everolimus dose was reduced when a patient experienced adverse events higher than grade 2. The first reduced dose was 5 mg once daily, followed by the second reduced dose of 2.5 mg once daily or 5 mg every alternate day. In addition, everolimus doses could be increased if adverse events improved to grade 1 or less, or deemed inefficacious. The adverse events were evaluated weekly for the first month and then every 1–4 weeks, according to the Common Terminology Criteria for Adverse Events Ver. 4.0.
Statistical differences in everolimus trough concentrations, doses and body weights between patient cohorts were assessed using the Mann–Whitney test. Progression-free survival (PFS) was assessed using the Kaplan-Meier method and the log-rank test. All statistical analyses were performed using GraphPad Prism version 7.03 (San Diego, CA). p < 0.05 was considered statistically significant.

[1] = All patients (n = 18), Grade All
[2] = Initial dose: 5 mg/day (n = 6), Grade 1
[3] = Initial dose: 5 mg/day (n = 6), Grade 2

CO[C@H]1C[C@@H]2CC[C@@H](C)[C@@](O)(O2)C(=O)C(=O)N2CCCC[C@H]2C(=O)O[C@H]([C@H](C)C[C@@H]2CC[C@@H](OCCO)[C@H](OC)C2)CC(=O)[C@H](C)/C=C(\C)[C@@H](O)[C@@H](OC)C(=O)[C@H](C)C[C@H](C)/C=C/C=C/C=C/1C [everolimus]
Adverse event, n: Diarrhea (All patients (n = 18), Grade 1): 1 | Adverse event, n: Dysgeusia (All patients (n = 18), Grade 1): 4 | Adverse event, n: Epistaxis (All patients (n = 18), Grade 1): 6 | Adverse event, n: High cholesterol (All patients (n = 18), Grade 1): 9 | Adverse event, n: Hyperglycemia (All patients (n = 18), Grade 1): 4 | Adverse event, n: Hypertriglyceridemia (All patients (n = 18), Grade 1): 8 | Adverse event, n: Hypokalemia (All patients (n = 18), Grade 1): 6 | Adverse event, n: Interstitial lung disease (All patients (n = 18), Grade 1): 3 | Adverse event, n: Malaise (All patients (n = 18), Grade 1): 6 | Adverse event, n: Mucositis oral (All patients (n = 18), Grade 1): 7 | Adverse event, n: Neutrophil count decreased (All patients (n = 18), Grade 1): 2 | Adverse event, n: Platelet decrease (All patients (n = 18), Grade 1): 9 | Adverse event, n: Rash (All patients (n = 18), Grade 1): 11 | Adverse event, n: Diarrhea (All patients (n = 18), Grade 2): 4 | Adverse event, n: Dysgeusia (All patients (n = 18), Grade 2): 1 | Adverse event, n: Epistaxis (All patients (n = 18), Grade 2): 0 | Adverse event, n: High cholesterol (All patients (n = 18), Grade 2): 2 | Adverse event, n: Hyperglycemia (All patients (n = 18), Grade 2): 1 | Adverse event, n: Hypertriglyceridemia (All patients (n = 18), Grade 2): 4 | Adverse event, n: Hypokalemia (All patients (n = 18), Grade 2): 1 | Adverse event, n: Interstitial lung disease (All patients (n = 18), Grade 2): 2 | Adverse event, n: Malaise (All patients (n = 18), Grade 2): 1 | Adverse event, n: Mucositis oral (All patients (n = 18), Grade 2): 10 | Adverse event, n: Neutrophil count decreased (All patients (n = 18), Grade 2): 3 | Adverse event, n: Platelet decrease (All patients (n = 18), Grade 2): 0 | Adverse event, n: Rash (All patients (n = 18), Grade 2): 3 | Adverse event, n: Diarrhea (All patients (n = 18), Grade 3): 0 | Adverse event, n: Dysgeusia (All patients (n = 18), Grade 3): 0 | Adverse event, n: Epistaxis (All patients (n = 18), Grade 3): 0 | Adverse event, n: High cholesterol (All patients (n = 18), Grade 3): 0 | Adverse event, n: Hyperglycemia (All patients (n = 18), Grade 3): 0 | Adverse event, n: Hypertriglyceridemia (All patients (n = 18), Grade 3): 0 | Adverse event, n: Hypokalemia (All patients (n = 18), Grade 3): 1 | Adverse event, n: Interstitial lung disease (All patients (n = 18), Grade 3): 0 | Adverse event, n: Malaise (All patients (n = 18), Grade 3): 0 | Adverse event, n: Mucositis oral (All patients (n = 18), Grade 3): 0 | Adverse event, n: Neutrophil count decreased (All patients (n = 18), Grade 3): 1 | Adverse event, n: Platelet decrease (All patients (n = 18), Grade 3): 0 | Adverse event, n: Rash (All patients (n = 18), Grade 3): 0 | Adverse event, n: Diarrhea (All patients (n = 18), Grade 4): 0 | Adverse event, n: Dysgeusia (All patients (n = 18), Grade 4): 0 | Adverse event, n: Epistaxis (All patients (n = 18), Grade 4): 0 | Adverse event, n: High cholesterol (All patients (n = 18), Grade 4): 0 | Adverse event, n: Hyperglycemia (All patients (n = 18), Grade 4): 0 | Adverse event, n: Hypertriglyceridemia (All patients (n = 18), Grade 4): 0 | Adverse event, n: Hypokalemia (All patients (n = 18), Grade 4): 1 | Adverse event, n: Interstitial lung disease (All patients (n = 18), Grade 4): 0 | Adverse event, n: Malaise (All patients (n = 18), Grade 4): 0 | Adverse event, n: Mucositis oral (All patients (n = 18), Grade 4): 0 | Adverse event, n: Neutrophil count decreased (All patients (n = 18), Grade 4): 0 | Adverse event, n: Platelet decrease (All patients (n = 18), Grade 4): 0 | Adverse event, n: Rash (All patients (n = 18), Grade 4): 0 | Adverse event, n: Diarrhea [1]: 5 | Adverse event, n: Dysgeusia [1]: 5 | Adverse event, n: Epistaxis [1]: 6 | Adverse event, n: High cholesterol [1]: 11 | Adverse event, n: Hyperglycemia [1]: 5 | Adverse event, n: Hypertriglyceridemia [1]: 12 | Adverse event, n: Hypokalemia [1]: 9 | Adverse event, n: Interstitial lung disease [1]: 5 | Adverse event, n: Malaise [1]: 7 | Adverse event, n: Mucositis oral [1]: 17 | Adverse event, n: Neutrophil count decreased [1]: 6 | Adverse event, n: Platelet decrease [1]: 9 | Adverse event, n: Rash [1]: 14 | trough concentrations at DLTs compared with trough concentrations in the absence of DLTs (DLT (n = 13) vs no DLT (n = 18), Mann-Whitney test, p = 0.0058): significantly higher | number of patients, DLTs (−) (Dose 5 mg, BW 36.1–40.0 kg): 1 | number of patients, DLTs (−) (Dose 5 mg, BW 40.1–45.0 kg): 1 | number of patients, DLTs (+) (Dose 5 mg, BW 45.1–50.0 kg): 1 | number of patients, DLTs (+) (Dose 5 mg, BW 50.1–55.0 kg): 1 | number of patients, DLTs (−) (Dose 5 mg, BW 50.1–55.0 kg): 3 | number of patients, DLTs (+) (Dose 5 mg, BW 55.1–60.0 kg): 3 | number of patients, DLTs (−) (Dose 5 mg, BW 55.1–60.0 kg): 2 | number of patients, DLTs (+) (Dose 10 mg, BW 36.1–40.0 kg): 1 | number of patients, DLTs (+) (Dose 10 mg, BW 40.1–45.0 kg): 1 | number of patients, DLTs (−) (Dose 10 mg, BW 40.1–45.0 kg): 1 | number of patients, DLTs (+) (Dose 10 mg, BW 45.1–50.0 kg): 2 | number of patients, DLTs (−) (Dose 10 mg, BW 45.1–50.0 kg): 1 | number of patients, DLTs (+) (Dose 10 mg, BW 50.1–55.0 kg): 2 | number of patients, DLTs (+) (Dose 10 mg, BW 55.1–60.0 kg): 2 | number of patients, DLTs (−) (Dose 10 mg, BW 60.1–65.0 kg): 1 | number of patients, DLTs (−) (Dose 10 mg, BW 66.1–70.0 kg): 1 | Adverse event, n: Diarrhea [2]: 0 | Adverse event, n: Dysgeusia [2]: 1 | Adverse event, n: Epistaxis [2]: 2 | Adverse event, n: High cholesterol [2]: 4 | Adverse event, n: Hyperglycemia [2]: 2 | Adverse event, n: Hypertriglyceridemia [2]: 2 | Adverse event, n: Hypokalemia [2]: 2 | Adverse event, n: Interstitial lung disease [2]: 0 | Adverse event, n: Malaise [2]: 1 | Adverse event, n: Mucositis oral [2]: 2 | Adverse event, n: Neutrophil count decreased [2]: 0 | Adverse event, n: Platelet decrease [2]: 2 | Adverse event, n: Rash [2]: 3 | Adverse event, n: Diarrhea [3]: 1 | Adverse event, n: Dysgeusia [3]: 1 | Adverse event, n: Epistaxis [3]: 0 | Adverse event, n: High cholesterol [3]: 0 | Adverse event, n: Hyperglycemia [3]: 0 | Adverse event, n: Hypertriglyceridemia [3]: 1 | Adverse event, n: Hypokalemia [3]: 0 | Adverse event, n: Interstitial lung disease [3]: 1 | Adverse event, n: Malaise [3]: 1 | Adverse event, n: Mucositis oral [3]: 4 | Adverse event, n: Neutrophil count decreased [3]: 0 | Adverse event, n: Platelet decrease [3]: 0 | Adverse event, n: Rash [3]: 1
